Test results published in ChEMBL document CHEMBL4052750, “Structure-based optimization and synthesis of antiviral drug Arbidol analogues with significantly improved affinity to influenza hemagglutinin” (Bioorg Med Chem Lett, 2017).

Experiments:
[1] = Binding affinity to Influenza A virus (A/Puerto Rico/8/1934(H1N1)) PR8 hemagglutinin-1 by biolayer interferometry analysis
[2] = Binding affinity to Influenza A virus (A/Hong Kong/1/1968(H3N2)) […] by biolayer interferometry analysis
[3] = system: Influenza A virus (A/Puerto Rico/8/1934(H1N1)); experiment: Binding affinity to Influenza A virus (A/Puerto Rico/8/1934(H1N1)) PR8 hemagglutinin-1 assessed as dissociation constant after 180 secs by biolayer interferometry analysis
[4] = system: Influenza A virus (A/Puerto Rico/8/1934(H1N1)); experiment: Binding affinity to Influenza A virus (A/Puerto Rico/8/1934(H1N1)) PR8 hemagglutinin-1 assessed as association constant after 180 secs by biolayer interferometry analysis
[5] = system: Influenza A virus (A/Hong Kong/1/1968(H3N2)); experiment: Binding affinity to Influenza A virus (A/Hong Kong/1/1968(H3N2)) […] assessed as dissociation constant after 180 secs by biolayer interferometry analysis
[6] = system: Influenza A virus (A/Hong Kong/1/1968(H3N2)); experiment: Binding affinity to Influenza A virus (A/Hong Kong/1/1968(H3N2)) […] assessed as association constant after 180 secs by biolayer interferometry analysis
[7] = system: Influenza A virus (A/Hong Kong/1/1968(H3N2)); experiment: Potency index, ratio of Kd for Arbidol to Kd for test compound for binding affinity to Influenza A virus (A/Hong Kong/1/1968(H3N2)) […] by biolayer interferometry analysis
[8] = system: Influenza A virus (A/Puerto Rico/8/1934(H1N1)); experiment: Potency index, ratio of Kd for Arbidol to Kd for test compound for binding affinity to Influenza A virus (A/Puerto Rico/8/1934(H1N1)) PR8 hemagglutinin-1 by biolayer interferometry analysis

Compound	Kd [1]	Kd ([2]; read-out: Kd) [µM]	Kd ([1]; read-out: Kd) [µM]	also measured
CCOC(=O)c1c(CSc2cccc(N)c2)n(C)c2cc(Br)c(O)cc12	Not Active	> 100	–	–
CCOC(=O)c1c(CSc2ccccc2)n(C)c2cc(Br)c(O)cc12	–	11	38	–
CCOC(=O)c1c(CSc2ccccc2)n(C)c2cc(Br)c(O)c(CN3CCN(CCO)CC3)c12	Not Active	46	–	–
CCOC(=O)c1c(CSc2cccc(N)c2)n(C)c2cc(Br)c(O)c(CN(C)C)c12	Not Active	7.4	–	–
CCOC(=O)c1c(CSc2ccccc2)n(C)c2cc(Br)c(O)c(CN(C)C)c12 [UMIFENOVIR]	–	92	47	K [3]: 4.8 ×10⁻² /s; K [4]: 1 ×10³ /M/s; K [5]: 2.8 ×10⁻² /s; K [6]: 2.3 ×10² /M/s
CCOC(=O)c1c(CSc2cccc(O)c2)n(C)c2cc(Br)c(O)cc12	–	17	75	–
CCOC(=O)c1c(CSc2ccc3ccccc3c2)n(C)c2cc(Br)c(O)cc12	–	45	18	–
CCOC(=O)c1c(CSc2ccc3ccccc3c2)n(C)c2cc(Br)c(O)c(CN(C)C)c12	Not Active	–	–	Kd [2]: Not Active
CCOC(=O)c1c(CSc2cccc(O)c2)n(C)c2cc(Br)c(O)c(CN(C)C)c12	–	–	0.48 to 0.55	K [3]: 3.42 ×10⁻² /s; K [4]: 7.06 ×10⁴ /M/s; Ratio [7]: 1150; Ratio [8]: 98; K [5]: 1.93 ×10⁻² /s; K [6]: 2.41 ×10⁵ /M/s
CCOC(=O)c1c(CSc2ccccc2)n(C)c2cc(Br)c(O)c(CN3CCN(C(=O)OC(C)(C)C)CC3)c12	–	–	41	Kd [2]: Not Active
